These results are taken from patent US4990520A, “2-,4- or 5-substituted thiazole derivatives” (American Cyanamid Company, priority 1990, dated 1991).

Counter-ions that a name gives are not always drawn.

The target in test [1] is high affinity agonist conformation of the muscarinic cholinergic receptor. Nature of the test: [3H]-Cis-methyldioxolane (3H-CD) Binding Assay (High Affinity). As to conditions: rat cerebral cortex, 1.0 nM 3H-CD, 25° C., 120 minutes, pH 7.4.
Test [2] has as its target muscarinic cholinergic receptor. In words: [3H] Quinuclinyl Benzilate (3H-QNB) Binding Assay. Further details: species or system rat. As to conditions: pH 7.4.
For another test, the system named is presynaptic cholinergic. As to conditions: cited from earlier work.
In another test the test system is postsynaptic cholinergic. As to conditions: cited from earlier work.
In a further test the test system is SDAT patients. As to conditions: versus anticholinesterase inhibitor physostigmine; cited from earlier work.
Where [3] appears, read: rat cerebral cortex, 0.25 nM 3H-QNB, 25° C., 120 minutes.
Setting [4] is: rat cerebral cortex, 0.25 nM 3H-QNB, 25° C., 120 minutes, hydrochloride.

For the molecule “1-[3-(5-Thiazolyl)-2-propenyl]piperidine”, the concentration for half-maximal inhibition (IC50) in test [1] turned out to be 12.6 µM; in test [2] (setting [3]) it was 164 µM.

As to `Cl/C(=C/c1nccs1)CN1CCCCC1` [1-[2-Chloro-3-(2-thiazolyl)-2-propenyl]piperidine,(E)], the concentration for half-maximal inhibition (IC50) was determined as 6.59 µM in test [1] and 117 µM in test [2] (setting [3]).

`C(#Cc1nccs1)CN1CCCCC1` [1-[3-(2-Thiazolyl)-2-propynyl]piperidine]: the IC50 in test [1] turned out to be 10.2 µM; in test [2] (setting [3]), 182 µM.

For the molecule `C(#Cc1cscn1)CN1CCCCC1` [1-[3-(4-Thiazolyl)-2-propynyl]piperidine, hydrochloride], the figures for the IC50 in test [1] (hydrochloride) and in test [2] (setting [4]) were 14 µM and 114 µM, respectively.

As for `C(#Cc1cscn1)CN1CCCCC1` [1-[3-(4-Thiazolyl)-2-propynyl]piperidine], the IC50 in test [1] stood at 28.1 µM; in test [2] (setting [3]), 124 µM.

Regarding `C(#Cc1cncs1)CN1CCCCC1` [1-[3-(5-Thiazolyl)-2-propynyl]piperidine, hydrochloride], the concentration for half-maximal inhibition (IC50) in test [1] turned out to be 0.658 µM; in test [2] (setting [3]), 119 µM.

`CN(C)C/C(Cl)=C\c1nccs1` [2-Chloro-N,N-dimethyl-3-(2-thiazolyl)-2-propen-1-amine,(E)]: the concentration for half-maximal inhibition (IC50) in test [1] turned out to be 1.07 µM; in test [2] (setting [3]), 222 µM.

In test [2] (setting [3]), `Br/C(=C/c1nccs1)CN1CCCC1` [2-[2-Bromo-3-(1-pyrrolidinyl)-1-propenyl]thiazole,(E)] returned an IC50 of 90 µM.

Turning to `Cl/C(=C/c1nccs1)CN1CCCC1` [2-[2-Chloro-3-(1-pyrrolidinyl)-1-propenyl]thiazole,(E)], the IC50 in test [1] amounted to 2.23 µM; in test [2] (setting [3]) it was 186 µM.

As for `C(#Cc1nccs1)CN1CCCC1` [2-[3-(1-Pyrrolidinyl)-1-propynyl]thiazole], the results for the 50% inhibitory concentration (IC50) in test [1] and in test [2] (setting [3]) were 1.43 µM and 44 µM, respectively.

On to `C(#Cc1cscn1)CN1CCCC1` [4-[3-(1-Pyrrolidinyl)-1-propynyl]thiazole], for which the results for the concentration for half-maximal inhibition (IC50) in test [1] and in test [2] (setting [3]) were 3.95 µM and 71 µM, respectively.

`C(#Cc1cncs1)CN1CCCC1` [5-[3-(1-Pyrrolidinyl)-1-propynyl] thiazole] [5-[3-(1-Pyrrolidinyl)-1-propynyl]thiazole]: the results for the concentration for half-maximal inhibition (IC50) in test [1] and in test [2] (setting [3]) were 4.7 µM and 115 µM, respectively.

Turning to `C(#Cc1cncs1)CN1CCCC1` [5-[3-(1-Pyrrolidinyl)-1-propynyl]thiazole], the IC50 came out at 0.245 µM in test [1] and 73 µM in test [2] (setting [3]).

`CN(C)CC#Cc1cscn1` [--N, --N-Dimethyl-3-(4-thiazolyl)-2-propyn-1-amine] [N,N-Dimethyl-3-(4-thiazolyl)-2-propyn-1-amine]: the 50% inhibitory concentration (IC50) in test [1] came to 12.9 µM; in test [2] (setting [3]) it was 504 µM.

`CN(C)CC#Cc1cscn1` [--N, --N-Dimethyl-3-(4-thiazoyl)-2-propyn-1-amine] [N,N-Dimethyl-3-(4-thiazoyl)-2-propyn-1-amine]: the half-inhibitory concentration (IC50) in test [1] worked out at 19 µM; in test [2] (setting [3]) it was 381 µM.

As to `CC(=O)N(C)C(C)C#CCN1CCCC1` (stereo not shown) [BM-5, N-methyl-N-(1-methyl-4-pyrrolidino-2-butynyl) acetamide], the presynaptic cholinergic activity entry in the test on presynaptic cholinergic was “presynaptic cholinergic antagonist”. Besides, the postsynaptic cholinergic activity entry in the test with postsynaptic cholinergic was “postsynaptic partial cholinergic agonist”.

For the molecule `C[N+](C)(C)CC#Cc1nccs1` [N,N,N-Trimethyl-3-(2-thiazolyl)-2-propyn-1-aminium iodide], the half-inhibitory concentration (IC50) in test [1] came to 0.673 µM; in test [2], 123 µM.

On to `C[N+](C)(C)CC#Cc1cscn1` [N,N,N-Trimethyl-3-(4-thiazolyl)-2-propyn-1-aminium, iodide], for which the IC50 was found to be 1.46 µM in test [1] and 119 µM in test [2].

Consider `C[N+](C)(C)CC#Cc1cncs1` [N,N,N-Trimethyl-3-(5-thiazolyl)-2-propyn-1-aminium iodide], for which the half-maximal inhibitory concentration (IC50) in test [1] was 0.273 µM; in test [2] (setting [3]) it was 131 µM.

Regarding `CN(C)CC#Cc1nccs1` [N,N-Dimethyl-3-(2-thiazolyl)-2-propyn-1-amine], the IC50 in test [1] turned out to be 9.98 µM; in test [2] (setting [3]), 1310 µM.

On to `CN(C)CC#Cc1cncs1` [N,N-Dimethyl-3-(5-thiazolyl)-2-propyn-1-amine, hydrochloride], for which, in test [2] (setting [4]), the IC50 came to 482 µM.

For the molecule `CN(C)CC#Cc1cncs1` [N,N-Dimethyl-3-(5-thiazolyl)-2-propyn-1-amine], the IC50 in test [1] is 3.38 µM; in test [2] (setting [3]), 765 µM.

In the case of `COC(=O)C1=CCCN(C)C1` [arecoline], in the test on SDAT patients, the “improvement when compared to physostigmine” value is given as “more-consistent improvement”.

As a reminder, the IC50 is the midpoint of a concentration-inhibition curve. The low end stands for greater potency in that assay, the high end for weaker potency in that assay.
